The values below come from US20060194217A1, “Method of genotyping and phenotyping hepatitis B viruses resistant to antiviral molecules” (priority 2005, published 2006).

In one assay the test system is HBV. The conditions noted are these: cited from earlier work.
Assay [1] has as its system HBV quasi-species of patient sample N° 17. Briefly: High throughput phenotyping assay: patient sample N° 17. The conditions noted are these: for IC50: Hepatitis B virus, 96 h, sample N° 17, M24 3TC, INNO LiPA L180M ± M204I, 4 days treatment; for Increase in resistance: sample N° 17, IC50 compared with referent virus. It counts as cell-based, hepatitis B virus. Here is the method: (§1) The DNA from 1 ml of serum was extracted using the QIAamp Ultrasens Virus kit (Qiagen), and was taken up in 60 μl of water.
(§2) An amplification of the whole genomes by the method of the invention including the Nar I site was carried out and the amplicons obtained were purified by means of a silica column (Qiagen kit, Qiaquick purification kit).
(§3) The amplicons were then digested with the Nar I enzyme and purified by the same method as above.
(§4) These amplicons were transfected, in a culture format comprising a 25 cm^2 flask seeded the day before at a density of 5.2×10^4 cells/cm^2, with 200 to 400 ng of amplicon/cm^2.
(§5) After 60 hours, the cells were trypsinized and then treated with DNAse. After trypsinization, the cells were taken up in culture medium supplemented 50/50 with the two-times concentrated DNAse buffer (50 mM Tris, 1 mM CaCl2, 5 mM MgCl2, pH 8, 400 μg/ml of DNAse I) containing DNAse I, and incubated for 45 min at 37°. After pelleting, the cells were taken up in culture medium and distributed into 96-well culture plates coated (BioCoat) with collagen at a density of 6×10^4 cells/cm^2 in a volume corresponding to half the final volume used for the treatment with the drugs to be tested. This volume was completed with the 2-times concentration range of the drugs studied (Lamivudine and Adefovir)
(§6) The ranges used were from 100 to 0.01 μM for Lamivudine and from 100 to 6.25 μM for Adefovir. These cultures were treated with these dilutions for 4 days.
(§7) At the end of these 4 days of treatment, the viral DNA was extracted.
(§8) This step was carried out after washing the cells with PBS and adding the extraction buffer, i.e. 50 μl per 30 mm^2 (96-well format) (25 mM Tris, 0.5 mM CaCl2, 2.5 mM MgCl2, pH 8, 0.4 mg/ml DNAse, 0.4 mg/ml RNAse, 1% NP40). The lysis lasted one hour at 37° C. with agitation on a Heidolph Titramax 1000 plate mixer at a rotation rate of about 1050 rpm.
(§9) After this step of lysis and of digestion with DNAse and RNAse, the viral DNA produced during the culturing remains protected in the viral capsids. […]
(§10) This denaturation step was then stopped by adding a neutralizing buffer, 15 μl of 1M Tris at pH 7, and the solution thus obtained was subjected to a dilution before quantification by real time PCR. […]
(§11) The viral DNA extracted was then quantified by means of real time PCR quantification method.
(§12) This HBV production quantification step can be directly carried out after the preceding step, without any need to purify or concentrate the cell lysates to be assayed. […] (quantification step), and a final extension of one minute at 63° C. […]
(§13) For each plate assayed, a standard curve of 10^6 to 10^2 HBV copies/reaction was quantified in parallel. […]

The subject of assay [2] is HBV quasi-species of patient sample N° 5. The assay is described as follows: High throughput phenotyping assay: patient sample N° 5. The conditions noted are these: for IC50: Hepatitis B virus, 96 h, sample N° 5, D0 3TC, naïve, INNO LiPA wt, 4 days treatment; for Increase in resistance: sample N° 5, IC50 compared with referent virus. It counts as cell-based, hepatitis B virus. Here is the method: as §1, §2, §3, §4, §5, §6, §7, §8, §9, §10, §11, §12, §13

In assay [3] the test system is HBV quasi-species of patient sample N° 21. Briefly: High throughput phenotyping assay: patient sample N° 21. It counts as cell-based, hepatitis B virus. Particulars: for IC50: Hepatitis B virus, 96 h, sample N° 21, D0 3TC, naïve, INNO LiPA wt, 4 days treatment; for Increase in resistance: sample N° 21, IC50 compared with referent virus. Here is the method:
as §1, §2, §3, §4, §5, §6, §7, §8, §9, §10, §11, §12, §13

The subject of assay [4] is HBV quasi-species of patient sample N° 7. The assay is described as follows: High throughput phenotyping assay: patient sample N° 7. It counts as cell-based, hepatitis B virus. The conditions noted are these: for IC50: Hepatitis B virus, 96 h, sample N° 7, M18 3TC, INNO LiPA L80V M204I, 4 days treatment; for Increase in resistance: sample N° 7, IC50 compared with referent virus. Here is the method: as §1, §2, §3, §4, §5, §6, §7, §8, §9, §10, §11, §12, §13

Assay [5] has as its system HBV quasi-species of patient sample N° 19. The assay is described as follows: High throughput phenotyping assay: patient sample N° 19. It counts as cell-based, hepatitis B virus. Particulars: for IC50: Hepatitis B virus, 96 h, sample N° 19, M24 3TC M3 PMEA, INNO LiPA L180M A181V, 4 days treatment; for Increase in resistance: IC50 compared with referent virus. Here is the method:
as §1, §2, §3, §4, §5, §6, §7, §8
After this step of lysis and of digestion with DNAse and RNAse, the viral DNA produced during the culturing remains protected in the viral capsids. This DNA was then extracted by denaturation of the viral capsids by means of alkalinization of the extraction buffer by addition of NaOH, i.e. 15 μl of a 0.4M solution per 50 μl of extraction buffer. This denaturation was carried out at 37° C. for 30 min under the same agitation conditions as during the treatment with DNAse, i.e. on a Heidolph Titramax 1000 plate mixer at a rotation rate of about 1050 rpm.
This denaturation step was then stopped by adding a neutralizing buffer, 15 μl of 1M Tris at pH 7, and the solution thus obtained was subjected to a dilution before quantification by real time PCR. The final dilution is ⅕ relative to the initial volume of extraction buffer, i.e. an addition of 170 μl of water in a 96-well format.
as §11
This HBV production quantification step can be directly carried out after the preceding step, without any need to purify or concentrate the cell lysates to be assayed. The real time PCR can be carried out in the same format as the culture format, i.e. a 96-well format on the Biorad MyiQ device, using the real time kit and the consumables suitable for this device, i.e. the iQ™ Sybr® Green Supermix two-times concentrated PCR mix. […] (quantification step), and a final extension of one minute at 63° C. […]
as §13

Assay [6] has as its system HBV quasi-species of patient sample N° 3. Briefly: High throughput phenotyping assay: patient sample N° 3. It counts as cell-based, hepatitis B virus. Particulars: for IC50: Hepatitis B virus, 96 h, sample N° 3, D0 3TC, naïve, INNO LiPA wt, 4 days treatment; for Increase in resistance: sample N° 3, IC50 compared with referent virus. Here is the method: as §1, §2, §3, §4, §5, §6, §7, §8, §9, §10, §11, §12, §13

The test system of assay [7] is reference HBV, genotype D, ayw serotype, wild-type phenotype. Briefly: High throughput phenotyping assay, HBV genomic amplicon transfected, viral DNA by real time PCR: referent virus. It counts as cell-based. The conditions noted are these: Hepatitis B virus, 96 h, Referent virus (genotype D, ayw, without known mutation), 4 days treatment. Here is the method: In addition to the 6 samples analysed, a control was included. This control is a genome of the reference HBV, genotype D, having an ayw serotype and a wild-type phenotype for all the drugs studied. This genome was amplified by the same technique as the samples analysed using a plasmid.
as §2, §3, §4
After 60 hours, the cells were trypsinized and then treated with DNAse. […]
as §10, §11, §12
(In general: Real-time PCR tracks product formation cycle by cycle.)

As to alpha-interferon, the “chronic carriers that it is possible to treat” value in the assay with HBV is reported as “approximately 40%”.
On to `Nc1ncnc2c1ncn2CCOCP(=O)(O)O` [Adefovir], for which the IC50 stood at 14 µM in assay [1]; 8 µM in assay [2]; 14.5 µM in assay [3]; 13.5 µM in assay [4]; 52 µM in assay [5]; 9 µM in assay [6]. Also, the 50% inhibitory concentration (IC50) in assay [7] stood at 8 µM. For the same compound, the Increase in resistance in assay [1] was 1.75; in assay [2], 1; in assay [3] it was 1.8; in assay [4], 1.7; in assay [5] (sample N° 19), 6.5; in assay [6], 1.1. For the same compound, the in vitro phenotype entry in assay [5] (sample N° 19) was “doubly resistant”.
For `Nc1ccn([C@@H]2CS[C@H](CO)O2)c(=O)n1` [Lamivudine], the IC50 is greater than 100 µM in assay [1]; 0.2 µM in assay [2]; 0.14 µM in assay [3]; greater than 100 µM in assay [4]; 40 µM in assay [5]; 0.7 µM in assay [6]. Besides, half-maximal inhibition in assay [7] (IC50) was put at 0.1 µM. Besides, the Increase in resistance is greater than 1000 in assay [1]; 2 in assay [2]; 1.4 in assay [3]; greater than 1000 in assay [4]; 400 in assay [5] (sample N° 19); 7 in assay [6].

By IC50 is commonly meant the concentration that inhibits the measured activity by half. Lower therefore signals greater potency.
